Key:
[1] = tested on: native heteromeric TRPC6/7 channels; assay: Whole-cell patch clamp of AVP-stimulated A7r5 cells; format: cell-based, rat; conditions: 10 μM
Description: (§1) The A7r5 cell line (derived from rat thoracic aorta smooth muscle cells) is a model system to investigate endogenous TRPC channels (Jung et al., 2002; Soboloff et al., 2005). The channels were indirectly stimulated by Arg^8-vasopressin (AVP), a vasoconstricting peptide that activates the endogenous vasopressin V1A receptor in these cells (Thibonnier et al., 1991).
Perfusion of A7r5 cells with 100 nM AVP stimulated non-selective cationic currents that bore the biophysical hallmarks of TRPC channels (FIG. 5). […] When 10 μM norgestimate were applied to AVP-stimulated A7r5 cells, 86.5±6.0% (n=8) of the current measured at resting membrane potential were blocked and this effect was reversible (FIG. 5).
Effect of 10 μM norgestimate (NG) on whole-cell currents evoked by 100 nM AVP on A7r5 cells in standard extracellular solution (200 μM [Ca^2+]o). Whole cell currents recorded at −60 mV (left panels) and the corresponding I-V relationships are shown (right panels). The curves were obtained during voltage ramps from −100 to +80 mV. L-type voltage-gated Ca^2+ channels were blocked by 5 μM nimodipine (ND) during the whole experiment.

TRPC6 = molecular target: T1, TRPC6 (Homo sapiens, UniProt Q9Y210); assay: Whole-cell patch clamp, AlF4- activated TRPC6 HEK293 cells; format: cell-based; conditions: 10 μM
T1 construct: expressed in transfected cells; host or cells: HEK293 (inducible expression)
T1 sequence (Q9Y210 1-931): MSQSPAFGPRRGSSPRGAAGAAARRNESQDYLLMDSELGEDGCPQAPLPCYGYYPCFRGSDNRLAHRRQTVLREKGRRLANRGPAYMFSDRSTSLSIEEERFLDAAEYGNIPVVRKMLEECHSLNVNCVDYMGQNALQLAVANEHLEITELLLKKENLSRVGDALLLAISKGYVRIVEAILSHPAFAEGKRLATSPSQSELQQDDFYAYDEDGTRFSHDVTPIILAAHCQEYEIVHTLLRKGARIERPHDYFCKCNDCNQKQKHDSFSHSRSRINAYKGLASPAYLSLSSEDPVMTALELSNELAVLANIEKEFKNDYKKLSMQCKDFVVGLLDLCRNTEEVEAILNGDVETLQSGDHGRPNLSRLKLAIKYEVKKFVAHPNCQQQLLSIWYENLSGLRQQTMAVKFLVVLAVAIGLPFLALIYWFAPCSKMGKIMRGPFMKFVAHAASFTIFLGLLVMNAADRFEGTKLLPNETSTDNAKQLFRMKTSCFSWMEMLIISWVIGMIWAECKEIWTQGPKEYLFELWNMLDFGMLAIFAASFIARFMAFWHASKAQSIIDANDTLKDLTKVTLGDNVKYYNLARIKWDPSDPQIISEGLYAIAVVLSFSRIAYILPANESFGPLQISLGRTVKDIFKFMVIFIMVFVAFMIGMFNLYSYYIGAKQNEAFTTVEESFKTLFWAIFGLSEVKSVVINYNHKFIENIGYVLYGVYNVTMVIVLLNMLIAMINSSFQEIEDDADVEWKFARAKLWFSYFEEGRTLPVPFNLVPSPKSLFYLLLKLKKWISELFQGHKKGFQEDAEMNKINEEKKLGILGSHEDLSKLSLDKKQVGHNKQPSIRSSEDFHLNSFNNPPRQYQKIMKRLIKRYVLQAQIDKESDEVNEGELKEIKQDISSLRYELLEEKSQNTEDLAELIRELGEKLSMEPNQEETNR
From the text: Inhibition of TRPC6- and TRPC5-mediated Ca^2+ -influx by norgestimate monitored in fluorometric experiments with cell populations was validated and compared with whole-cell patch clamp recordings of single cells. Channels were indirectly excited with the same stimulus for better comparability of the norgestimate effect. Aluminium tetrafluoride (AIF^4−) applied intracellularly via the patch pipette activates G-proteins by mimicking GTP (Sternweis & Gilman, 1982; Bigay et al., 1987). Subsequently TRPC channels are stimulated and mediate non-specific cationic currents (FIG. 3 A, B) When 10 μM norgestimate were applied to activated TRPC6 channels, 89.9 ±3.1% (n=15) of the current measured at resting membrane potential was blocked. This inhibition was reversible as current amplitude increased after norgestimate wash out (FIG. 3 A).
Effect of 10 μM norgestimate (NG) on whole-cell currents evoked by AlF4^− infusion into induced TRPC6— (A) and TRPC5 HEK 293 (B) cells. Whole cell currents recorded at −70 mV (left panels) and the corresponding current-voltage (I-V) relationships are shown (right panels). […] The curves were obtained during voltage ramps from −100 to +80 mV. (C) Statistical analysis of the norgestimate effect on TRPC5— and TRPC6-mediated currents. 10 μM norgestimate inhibit 25.9±5.7% (n=20) of TRPC5-mediated currents and 89.9±3.1% (n=15) of TRPC6-mediated currents (P<0.001, Wilcoxon test, two-sided).

[2] = tested on: TRPC3/6/7 subfamily members versus TRPC4/5 subfamily members; assay: Fluorometric measurements, potency compared between TRPC subfamilies; format: cell-based; conditions: based on calculated inhibition by 10 μM norgestimate
Description: The 4-fold more potency of norgestimate on TRPC3/6/7 subfamily members than on TRPC4/5 subfamily members was evaluated with fluorometric measurements and based on the calculated inhibition by 10 μM norgestimate.

V1 receptor = molecular target: T2, V1 receptor (Rattus norvegicus, UniProt P30560); assay: Calcium imaging of fura-2-loaded A7r5 cells stimulated with AVP; format: cell-based; conditions: 10 μM, 5 min preincubation, calcium-free solution, 100 nM AVP
T2 construct: endogenous in cells; host or cells: A7r5 (rat aortic smooth muscle)
T2 sequence (P30560 whole entry): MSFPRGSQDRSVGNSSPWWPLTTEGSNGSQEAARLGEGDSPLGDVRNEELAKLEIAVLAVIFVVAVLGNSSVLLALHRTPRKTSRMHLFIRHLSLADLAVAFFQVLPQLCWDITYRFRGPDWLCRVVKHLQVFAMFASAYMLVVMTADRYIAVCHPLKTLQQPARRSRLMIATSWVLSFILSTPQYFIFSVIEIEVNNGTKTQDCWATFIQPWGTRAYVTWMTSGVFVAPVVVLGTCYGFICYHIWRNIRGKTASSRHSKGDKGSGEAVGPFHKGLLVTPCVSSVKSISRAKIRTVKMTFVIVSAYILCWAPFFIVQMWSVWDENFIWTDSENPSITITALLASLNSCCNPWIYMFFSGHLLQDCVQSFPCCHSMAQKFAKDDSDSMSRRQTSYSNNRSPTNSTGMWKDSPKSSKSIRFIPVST
Description: as §1
Time-dependent changes of [Ca^2+]i; of fura-2-loaded A7r5 cells. Cells were preincubated with or without (control) 10 μM norgestimate (NG) in calcium-free standard extracellular solution (1 mM EGTA) for 5 min before stimulating the V1 receptor by application of 100 nM AVP. Data are represented as means of 33 cells (control) and 36 cells (10 μM norgestimate). Measurements were performed using a standard imaging setup (TILL Photonics, Gräfelfing, Germany).

## C#C[C@]1(OC(C)=O)CC[C@H]2[C@@H]3CCC4=C/C(=N/O)CC[C@@H]4[C@H]3CC[C@@]21CC [norgestimate, D-17β-acetoxy-B-ethyl-17α ethinyl-gon-4-en-3-one oxime]
[1]
  reversibility of current block in A7r5 cells: reversible
[1]; 100 nM AVP, resting membrane potential (-60 mV), n=8
  AVP-stimulated current blocked in A7r5 cells: 86.5±6.0%
TRPC6
  reversibility of TRPC6 current inhibition after wash out: reversible
TRPC6; current at resting membrane potential (-70 mV), n=15
  TRPC6 current blocked: 89.9 ±3.1%
[2]
  fold more potent on TRPC3/6/7 subfamily members than on TRPC4/5 subfamily members: at least 4 fold
V1 receptor
  effect on V1 receptors (AVP-evoked [Ca2+]i): does not generally suppress
